Measured values published in patent publication US20250372228A1, “METHOD AND SYSTEM FOR D[…] PHARMACOKINETIC MODEL OF PROPOFOL AND DERIVATIVE THEREOF” (Xizang Haisco Pharmaceutical Co., Ltd., priority 2020, published 2025).
Read-outs that look alike come from different tables or passages of the source.

Experiments:
[1] = Free drug concentration in the aqueous phase by ultrafiltration method; type: physicochemical; conditions: same conditions and concentrations, compared with propofol (Jingan®)
Source text: Propofol derivative injectable emulsion (hereinafter referred to as propofol derivative, with a chemical name of 2-[(1R)-1-cyclopropylethyl]-6-isopropyl-phenol), which is developed by Sichuan Haisco Pharmaceutical Co., Ltd. as a novel intravenous anesthetic with independent intellectual property rights, is intended to be used for sedation/anesthesia in various diagnostic examinations or treatments, induction and maintenance of general anesthesia, and sedation (ICU sedation) of intensive care subjects under mechanical ventilation. The propofol derivative, as the active ingredient, is a chemical entity similar to propofol, and is a single […] with two chiral centers of R-configuration. […] The main action mechanism of the propofol derivative is to allow for the inflow of chloride ions by enhancing an ion channel mediated by a γ-aminobutyric acid type A (GABAA) receptor, thereby achieving the inhibition of the nervous centralis. The channel is also a main target where propofol exerts its effects. The propofol derivative has the pharmacodynamic characteristics of fast onset of action and stable and rapid recovery.

[2] = Population pharmacokinetic (PopPK) three-compartment model of the propofol derivative from clinical trial plasma concentrations; type: in vivo, human; conditions: for Intercompartmental clearance between the central compartment and the peripheral compartment 1, Q2: exp(θ3); for Volume of distribution in the peripheral compartment 1, V2: exp(θ4); for Clearance between the central compartment and the peripheral compartment 2, Q3: exp(θ5); for Volume of distribution in the peripheral compartment 2, V3: exp(θ6); for relative median change of CL by total protein: total protein range not given; for Residual of venous blood collection (%): σ1; for Residual of arterial blood collection (%): σ2; for Interindividual variation of clearance, CL %: ωCL; for Interindividual variation of intercompartmental clearance between the central compartment and the peripheral compartment 1, Q2%: ωQ2; for Interindividual variation of intercompartmental clearance between the central compartment and the peripheral compartment 2, Q3%: ωQ3; for Interindividual variation of volume of distribution in the central compartment, V1%: ωV1; for Interindividual variation of volume of distribution in the peripheral compartment 2, V3%: ωV3
Source text: The original data set comprises 2609 measurable plasma drug concentration data from 219 subjects (wherein 81 people receive both arterial and venous blood collection, and subjects receiving another blood collecting method are regarded as new individuals, that is, 300 individuals are included in the population analysis).
By using a stepwise backward elimination method, no influence factors are eliminated (Δ−2LL>10.83).

[3] = test system: γ-aminobutyric acid type A (GABAA) receptor; experiment: Potency compared with propofol (background statement)
[4] = for Volume of distribution in the peripheral compartment 2, V3: exp(6); for Volume of distribution in the peripheral compartment 2, V3 / Clearance between the central compartment and the peripheral compartment 2, Q3: parameter fixed (FIX); for Intercompartmental clearance between the central compartment and the peripheral compartment 1, Q2: exp(θ3); for Volume of distribution in the peripheral compartment 1, V2: exp(θ4); for Clearance between the central compartment and the peripheral compartment 2, Q3: exp(θ5); for Residual (%): σ1; for Clearance, CL %: ωCL (interindividual variation); for Volume of distribution in the central compartment, V1%: ωV1 (interindividual variation)
Experimental: (§1) A pharmacokinetic data set included in the analysis are determined by evaluating the clinical trial data included: • plasma drug concentration data: acquired by means of implementation of the sampling scheme (see FIG. 8); • baseline demographic characteristic data: race, age, height, weight and gender; • blood biochemical index data: blood total protein content, creatinine clearance, glutamic-oxalacetic transaminase and glutamic-pyruvic transaminase; and • blood collection sites.
(§2) Establishing the preliminary foundation model on the basis of the data processed in step 3 comprising: • (1) describing interindividual variation of the PK parameters by using the following equation:
(§3) Establishing the final foundation model on the basis of the preliminary foundation model in step 4 comprising: • (1) determining covariates included in the evaluation on the basis of clinical knowledge and a drug action mechanism: • baseline demographic characteristic covariates: baseline values for age, gender, weight and race; • blood biochemical index covariates: creatinine clearance, total protein, glutamic-oxalacetic transaminase, glutamic-pyruvic transaminase, alkaline phosphatase and total bilirubin; and • blood collection sites. • (2) establishing a final population pharmacokinetic foundation model on the basis of the covariates included in the evaluation.
(§4) Establishing the population pharmacokinetic model by adding the screened covariates on the basis of the final foundation model in step 5 comprising: • (1) Pre-screening of covariates: • analyzing the correlation between the continuous covariates and the PK parameters by using the following equation:

clinical = conditions: human, plasma, intravenous; for clearance: CL, exp(θ1); for Vd: Volume of distribution in the central compartment, V1, exp(θ2)
Experimental: as §1, §2, §3, §4

[5] = median of Bootstrap (2.5th to 97.5th percentiles)
[6] = typical value of final population model (95% CI)
[7] = typical value of final population model

In the case of `CC(C)c1cccc([C@H](C)C2CC2)c1O` [propofol derivative, 2-[(1R)-1-cyclopropylethyl]-6-isopropyl-phenol], the “free drug concentration in the aqueous phase” value [1] was “lower free drug concentration in the aqueous phase”, the “influence of age on AUC0-24” value ([2]; age 19.8 to 53 years old, propofol derivative-302 trial) was “no influence” and the “influence of age on Cmax” value ([2]; age 19.8 to 53 years old, propofol derivative-302 trial, expected to be clinically insignificant) was “has an influence”. For the same compound, the “Clearance, CL” value ([2]; exp(θ1), median of Bootstrap (2.5th to 97.5th percentiles)) was 66.4 (63.7 to 69.4) L/hr, the “Volume of distribution in the central compartment, V1” value ([2]; exp(θ2), median of Bootstrap (2.5th to 97.5th percentiles)) was 2.48 (2.27 to 2.74) L and the “Intercompartmental clearance between the central compartment and the peripheral compartment 1, Q2” value [2, 5] was 57.9 (51.5 to 65.6) L/hr. For the same compound, the “Intercompartmental clearance between the central compartment and the peripheral compartment 1, Q2” value [2, 6] was 58 (50.8 to 65.1) L/hr, the “Volume of distribution in the peripheral compartment 1, V2” value (“Volume of distribution … V2” for short) [2, 5] was 5.74 (5.07 to 6.7) L and the “Volume of distribution … V2” value [2, 6] was 5.77 (4.96 to 6.58) L. For the same compound, the “Clearance between the central compartment and the peripheral compartment 2, Q3” value [2, 5] was 59.1 (54.6 to 63.6) L/hr, the “Clearance between the central compartment and the peripheral compartment 2, Q3” value [2, 6] was 59.0 (54.5 to 63.5) L/hr and the “Volume of distribution in the peripheral compartment 2, V3” value [2, 5] was 78.4 (73 to 83.9) L. For the same compound, the “Volume of distribution in the peripheral compartment 2, V3” value [2, 6] was 78.3 (72.8 to 83.8) L, the “relative median change of CL by total protein” value ([2]; first value of the pair) was 6.8% and the clearance ([2]; human, plasma, intravenous, exp(θ1), typical value of final population model (95% CI), read-out: Clearance, CL (converted)) was 1110 mL/min. For the same compound, the Vd ([2]; human, plasma, intravenous, exp(θ2), typical value of final population model (95% CI), read-out: Volume of distribution in the central compartment, V1) was 2.48 L, the “relative median change of CL by total protein” value ([2]; second value of the pair) was −6.3% and the “relative median change of CL by weight” value ([2]; weight 45 kg (lower end of range 45 kg to 90 kg)) was −11.6%. The “relative median change of CL by weight” value ([2]; weight 90 kg (upper end of range 45 kg to 90 kg)) was 12.7%, the “Residual of venous blood collection (%)” value [2, 5] was 30.5 (26.3 to 34.6) % and the “Residual of venous blood collection (%)” value [2, 6] was 30.6 (26.6 to 34.5) %. The “Residual of arterial blood collection (%)” value [2, 5] was 16.9 (15.7 to 18.2) %, the “Residual of arterial blood collection (%)” value [2, 6] was 16.9 (15.8 to 18.1) % and the “Interindividual variation of clearance, CL %” value [2, 5] was 14.3 (11.9 to 17) %. The “Interindividual variation of clearance, CL %” value [2, 6] was 14.5 (12 to 16.9) %, the “Interindividual variation of intercompartmental clearance between the central compartment and the peripheral compartment 1, Q2%” value [2, 5] was 29.0 (23.1 to 35.5) % and the “Interindividual variation of intercompartmental clearance between the central compartment and the peripheral compartment 1, Q2%” value [2, 6] was 28.9 (23.1 to 34.7) %. The “Interindividual variation of intercompartmental clearance between the central compartment and the peripheral compartment 2, Q3%” value [2, 5] was 28.8 (22.8 to 36.3) %, the “Interindividual variation of intercompartmental clearance between the central compartment and the peripheral compartment 2, Q3%” value [2, 6] was 29.1 (23.1 to 35.1) % and the “Interindividual variation of volume of distribution in the central compartment, V1%” value [2, 5] was 40.4 (27.7 to 54.5) %. The “Interindividual variation of volume of distribution in the central compartment, V1%” value [2, 6] was 41.4 (28 to 54.9) %, the “Interindividual variation of volume of distribution in the peripheral compartment 2, V3%” value [2, 5] was 30.5 (25.3 to 35.7) % and the “Interindividual variation of volume of distribution in the peripheral compartment 2, V3%” value [2, 6] was 30.7 (25.6 to 35.8) %. For the same compound, the “potency relative to propofol” value [3] was 4-5 times.
With `CC(C)c1cccc(C(C)C)c1O` [propofol] the “influence of covariates on the pharmacokinetic parameters” value ([4]; covariate screening, forward and backward method) was “not found that covariates have a significant influence”, the “Volume of distribution in the peripheral compartment 2, V3” value ([4]; Bootstrap column) was 262, FIX(—) L and the “Volume of distribution in the peripheral compartment 2, V3” value [4, 7] was 262, FIX(—) L. For the same compound, the “Intercompartmental clearance between the central compartment and the peripheral compartment 1, Q2” value [4, 5] was 132 (13.0 to 200) L/hr, the “Intercompartmental clearance between the central compartment and the peripheral compartment 1, Q2” value [4, 6] was 142 (88.4 to 196) L/hr and the “Volume of distribution … V2” value [4, 5] was 35.6 (1.64 to 53.3) L. For the same compound, the “Volume of distribution … V2” value [4, 6] was 37.6 (25.2 to 50.0) L, the “Clearance between the central compartment and the peripheral compartment 2, Q3” value ([4]; Bootstrap column) was 48.6, FIX(—) L/hr and the “Clearance between the central compartment and the peripheral compartment 2, Q3” value [4, 7] was 48.6, FIX(—) L/hr. The “Residual (%)” value [4, 5] was 17.1 (11 to 23.1) %, the “Residual (%)” value [4, 6] was 19.2 (12.7 to 25.7) % and the “Clearance, CL %” value [4, 5] was 22.5 (13.6 to 30.6) %. The “Clearance, CL %” value [4, 6] was 23.0 (14.8 to 31.1) %, the “Volume of distribution in the central compartment, V1%” value [4, 5] was 32.4 (6.02 to 49.5) % and the “Volume of distribution in the central compartment, V1%” value [4, 6] was 30.5 (8.11 to 52.9) %. It also gave a clearance (clinical; [5]) of 1530 mL/min, a clearance (clinical; [6]) of 1590 mL/min and a Vd (clinical; [5]) of 8.92 L. The Vd (clinical; [6]) was 9.46 L.
